Source: patent US9060537B2, “Method for enhancing rebaudioside D solubility in water” (PEPSICO, INC., priority 2012, dated 2015)

Columns and labels:
[1] = Modified Reb D solubility in water; type: physicochemical
[2] = co-crystallization of quercetin with caffeine, mass ratio 2:1; cited from earlier work
[3] = co-crystallization of quercetin with caffeine, mass ratio 2:1; cited from earlier work; remark: listed apart in the source

Row | Solubility (23° C.) (ppm) ([1]; in water, 23° C.) | solubility of the Reb D after spray drying the clear Reb D solution to a fine powder ([1]; spray dried without enhancer or stabilizer) [ppm] | solubility in water ([1]; water at 23° C. / room temperature, untreated Reb D or powders as worded) [ppm] | maximum solubility in heated water ([1]; water heated above 70° C., typically 80 to 100° C.) [wt %] | SMILES | solubility increase [2] [fold] | bioavailability increase [3] [fold]
1 | 350 | 1500 | 300 | 2.5 | C=C1C[C@@]23CC[C@H]4[C@@](C)(CCC[C@@]4(C)C(=O)O[C@@H]4O[C@H](CO)[C@@H](O)[C@H](O)[C@H]4O[C@@H]4O[C@H](CO)[C@@H](O)[C@H](O)[C@H]4O)[C@@H]2CC[C@]1(O[C@@H]1O[C@H](CO)[C@@H](O)[C@H](O[C@@H]2O[C@H](CO)[C@@H](O)[C@H](O)[C@H]2O)[C@H]1O[C@@H]1O[C@H](CO)[C@@H](O)[C@H](O)[C@H]1O)C3 [Control, Rebaudioside D] | – | –
2 | – | – | – | – | O=c1c(O)c(-c2ccc(O)c(O)c2)oc2cc(O)cc(O)c12 [quercetin] | 14 | 10
